Results taken from a melting point compilation (Tetko et al.; mined from patent text by program, amines drawn as free bases though some values may be those of a salt).

| Structure (SMILES) | melting point |
| --- | --- |
| CCCc1sc(-c2nccs2)c2c1C(=O)CC(C)(C)C2 | 69 to 72 °C |
| CC(C)(C)OC(=O)N1CCCC1COC(=O)N1CCN(c2cc(N3CCCC3)nc(N3CCCC3)n2)CC1 (single isomer, unassigned; (-)) | 147 °C |
| O=C(c1ccc2nonc2c1)N1CC2CC1CO2 (stereo not drawn) | 102 to 104 °C |
| CN1Cc2c(C#N)ncn2-c2ccc(F)c(Cl)c2C1=O | 221 to 223 °C |
| Cc1ccc(N)cc1/C=C/c1nc(C(C)C)cs1 | 60 to 61 °C |
| Cc1ccccc1-n1c(-c2cc(-c3ccc(S(C)(=O)=O)cc3)c(N3CCOCC3)s2)nc2ccccc2c1=O | 255 to 258 °C |
| O=C(CCCO)c1cccnc1 | 36 to 37 °C |
| CCCn1nc(C(C)C)c(C(=O)O)c1Cc1ccc(-c2ccccc2-c2nnn(C(c3ccccc3)(c3ccccc3)c3ccccc3)n2)cc1 | 136 to 139 °C |
| CC(=O)OCCCNC(=O)C1=C(C(=O)Nc2ccc(Cl)cc2F)CCCC1 | 127 to 128 °C |
| O=S(=O)(Nc1ccccc1OC(c1ccncc1)C1CCNCC1)c1ccc2cc(Br)ccc2c1 (stereo not drawn) | 197 to 200 °C |
| CCCC(=O)NN=C(C)c1sc(C)nc1C | 124 °C |
| O=C1c2ccccc2N(N2CCCCC2)C2=NCCN12 | 229 to 231 °C |
| CCOC(=O)C1N=c2ccsc2=CN1N (stereo not drawn) | 139 to 141 °C |
| CS(=O)(=O)c1ccc(C(=O)O)c(Cl)c1CO | 240 to 245 °C |
| Cc1cc(-c2cccc(C(F)(F)F)c2)n2ccnc2n1 | 170 to 172 °C |
| CNC(=O)n1ccc(O)cc1=O | 268 °C |
| CCOC(=O)N1CCN(c2ccc(-n3cc[nH]c3=O)cc2)CC1 | 196 °C |
| Cc1cc(S(=O)(=O)O)ccc1NC(=O)NN | 252 to 255 °C |
| CC(C)(C)C(=O)NS(=O)(=O)c1cccc(N)c1 | 147 to 150 °C |
| CCCCCc1ocnc1C(=O)O | 84 to 85 °C |
| O=S(CCCCCOc1ccc(C2=C(c3ccccc3)CCCc3cc(O)ccc32)cc1)Cc1ccccn1 (stereo not drawn) | 176 °C |
| Cc1cccc(Nc2cc(Cl)nc(Cl)n2)c1C | 204 to 206 °C |
| CN1Cn2ncc([N+](=O)[O-])c2-c2ccccc21 | 172 to 173 °C |
| Cc1cc(NCC(C)C)c2[nH]ncc2n1 | 162 to 164 °C |

| Structure (SMILES) | melting point |
| --- | --- |
| CC1(C)SC2C(NC(=O)CNC(=O)NC(=N)Cc3ccc(Cl)cc3)C(=O)N2C1c1nnn[nH]1 (stereo not drawn) | 150 to 162 °C |
| COc1ccc(CCN(C)CCCOc2ccc(NC(=O)c3cccc4c(=O)c5ccccc5[nH]c34)cc2)cc1 | 160 °C |
| CC(C)c1cc(C(C)C)c(NC(=O)CN2CCN(CCCSc3nc4ccccc4s3)CC2)c(C(C)C)c1 | 107 to 108 °C |
| CCC(=O)On1c(=O)c(=O)[nH]c2cc(C(F)(F)F)c(C#N)cc21 | 227 °C |
| Cc1nnsc1C(=O)Nc1ccc(-n2nc(C3CC3)cc2C2CC2)c(F)c1 | 148 to 152 °C |
| CC(C)(C)ONC(=O)[C@H]1CNCCN1C(=O)OC(C)(C)C | 113 to 114 °C |
| O=C(O)CON=Cc1ccc(Cl)cc1 | 121 to 123 °C |
| C#CCOc1ccc2c(c1)c(-c1ccc(C(C)C)cc1)nc(=O)n2Cc1cccc(N2CCCC2=O)c1 | 68 to 69 °C |
| COc1ccc(C(=O)N2CCc3cc(O)c(OC)cc3C2)cc1 | 173 to 174 °C |
| Nc1ccc(-c2nc(-c3ccco3)no2)cc1 | 183 to 185 °C |
| CC(n1ncn(-c2ccc(N3CCN(c4ccc(O)cc4)CC3)cc2)c1=O)C(F)(F)F (stereo not drawn) | 215 °C |
| COc1cc2cn(-c3c(C)c(C)c4c(c3C)C(c3ccc(C)cc3)C(C)(C)O4)cc2cc1OC (stereo not drawn) | 146 to 147 °C |
| c1cc2[nH]ncc2cc1OC1CCCC1 | 141 to 142 °C |
| Cc1nc(OS(=O)(=O)C(F)(F)F)c([N+](=O)[O-])c(NCC(C)(C)O)c1C | 79 to 80 °C |
| Cc1nn(-c2c(Cl)cc(C(F)(F)F)cc2Cl)nc1Cl | 100 to 115 °C |
| CS(=O)(=O)Nc1cc(-c2ccc(S(C)(=O)=O)cc2)c(-c2ccc(F)cc2)s1 | 87 to 90 °C |
| CSc1c2c3c(cccc3n1CO)C1C=C(C)CN(C)C1C2 (stereo not drawn) | 133 to 135 °C |
| Cc1cc2c(cc1C(=O)O)CCC(CCN1CCCC1)=C2 | 258 to 259 °C |
| COc1c(F)c(F)c(C(=O)C=C2OC(=O)c3ccccc32)c(F)c1F | 199 to 200 °C |
| COC(=O)SC1C2=C(CCCC2)C(=O)N1c1ccc(Cl)cc1F (stereo not drawn) | 80 to 81 °C |
| CNC(=O)NCCN1CCC(=C2c3ccccc3CCn3ccnc32)CC1 | 178 °C |
| N#Cc1cncc(I)c1O | > 245 °C |
| COC(=O)CC[C@H](NC(=O)c1cc(CCC2CNc3nc(N)nc(O)c3C2)c[nH]1)C(=O)OC (stereo partly drawn) | 151 to 153 °C |
| COC(=O)c1ccc(O)c(C(=O)OC)c1 | 93 to 94 °C |

| Structure (SMILES) | melting point |
| --- | --- |
| O=C(O)COc1cc2cc(C3CCCC3)sc2c(Cl)c1Cl | 173 to 174 °C |
| O=C1OCCC1=Cc1ccccc1OCC(O)CN1CCC(c2ccc(Cl)c(F)c2)CC1 (stereo not drawn) | 114 to 115 °C |
| CCOc1cc(CBr)ccc1C(=O)O | 64 to 66 °C |
| COc1c(F)cc(NN)cc1F | 60.5 to 62.3 °C |
| Nc1ncnc2c1ncn2Cc1nc2ccc(Br)cc2c(=O)n1-c1ccccc1Cl | 284 to 285 °C |
| CCOC(=O)c1ccc(NC(=S)NCCn2c(C)ccc2C)cc1 | 155 to 156 °C |
| CCCCCCSc1[nH]c2cccc3c2c1CC1C3C=C(C)CN1C (stereo not drawn) | 199 to 201 °C |
| CC(C)OC(=O)c1cc(-n2c(N)c(C#N)cnc2=O)c(F)cc1Cl | 212 to 213 °C |
| Cc1cc(C(=O)O)c(S(N)(=O)=O)o1 | 191 °C |
| Fc1ccc(-c2cc(C(F)(F)F)n[nH]2)c(F)c1 | 157 to 158 °C |
| COC(=O)C1=C(C)NC(C)=C(C(=O)OC)C1c1ccc(F)c(Nc2c(NCCCN3CCC(c4cccc(OC)c4)CC3)c(=O)c2=O)c1 | 205 to 207 °C |
| CCOC(=O)c1ccc(OC(=O)CCCCC(=O)Oc2ccc(C(=O)OCC)cc2)cc1 | 82 to 83 °C |
| CN1CCN=C1N1CCNCC1 | 115 to 125 °C |
| COc1ncnc2ccsc12 | 92 to 94 °C |
| CCN(CC)CC1CCCCN1CC(=O)N1c2ccccc2C(=O)Nc2ccc(Cl)nc21 (stereo not drawn) | 191 to 192 °C |
| COc1ncc(C(F)(F)F)cc1C=NO | 98 to 104 °C |
| Cc1[nH]cnc1CN1CCc2c(c3cccc(F)c3n2C)C1=O | 230 to 233 °C |
| FCCn1cc(-c2ccc3nnn(Cc4ccc5ncccc5c4)c3n2)cn1 | 168 to 170 °C |
| c1ccc2c(c1)c1ccccc1n2-c1ccc2c(c1)Sc1ccc(-n3c4ccccc4c4ccccc43)cc1S2 | 350 °C |
| CCc1ccc2c(c1)C=Cc1cc(C)ccc1C2c1cn(-c2ccnc(NCC(=O)Nc3ncc(CC(=O)O)s3)n2)c(=O)[nH]c1=O (stereo not drawn) | 206 to 208 °C |
| Cc1nc(N2CCc3ccccc3CC2)c(C#N)c(=O)n1OCC(F)(F)F | > 200 °C |
| CCCC(c1ccc(C(=O)O)cc1)[Si]1(C)O[Si](C)(C)O[Si](C)(C)O[Si](C)(C)O1 (stereo not drawn) | 72 to 78 °C |
| CCCOCCCCCCCCCC(=O)O | < 30 °C |
| C#CCOc1cc(OCC=C)ccc1-c1nc2ncccc2[nH]1 | 210 °C |

Continued, values first:

| melting point | Structure (SMILES) |
| --- | --- |
| 124 to 125 °C | CS(=O)(=O)c1cccc(-c2ccccc2[N+](=O)[O-])c1 |
| 156 to 158 °C | CC(Nc1ccc2c(n1)CC1CCCCC1C2=O)c1ccccc1 (stereo not drawn) |
| 115 to 116 °C | CCn1ncc2c(ON=C(C)C)c(C(=O)c3ccccc3)cnc21 |
| 75 to 76 °C | Fc1cc(Br)c2ccccc2c1Cl |
| 221 °C | Cc1ccc(N2C(=O)C(O)=C(C(=O)c3ccccc3C)C2c2ccc(C(C)C)cc2)nn1 (stereo not drawn) |
| 85 to 87 °C | COC(=O)Cc1cc(C(C)=O)ccc1OCc1ccccc1 |
| 156 to 157 °C | O=C1CCN(Cc2ccc(O)cc2)CC1C1c2ccccc2C=Cc2ccccc21 (stereo not drawn) |
| 113 to 120 °C | Oc1ccc(/C(=C(\c2ccccc2)C(F)(F)F)c2ccccc2)cc1 |
| 136 °C | O=C(NC(Cc1ccccc1)C(=O)C(F)F)c1ccccc1 (stereo not drawn) |
| 46 to 50 °C | Cc1ccc(C(C)(C)C)c(SC2=C(O)CC(CCc3ccccc3)(CCC(C)C)OC2=O)c1 (stereo not drawn) |
| 127 to 129 °C | CC(C)c1nc(N)oc1-c1cccc2ccccc12 |
| 160 to 161 °C | COc1ccccc1-c1n[nH]c(-c2ccccc2C)n1 |
| 144 to 146 °C | CCCc1c(C(=O)NCc2ccc3c(Br)c(OCC(=O)OC)ccc3c2)cnn1-c1ccccc1 |
| 110 to 113 °C | O=C1C[C@H](O)C(=O)N1Cc1ccccc1 |
| 134 °C | COC(=O)c1cc2c3ccccc3n(C)c2s1 |
| 162 °C | O=C(CNC(=O)n1ccnc1)N(c1ccccc1)c1ccccc1 |

| melting point | Structure (SMILES) |
| --- | --- |
| 92 °C | O=C(c1ccccc1)c1cccc(NC(=O)C(Cl)CCl)c1 (stereo not drawn) |
| 189 to 190 °C | CCS(=O)(=O)CCC(=O)NNC(=O)N1Cc2cc(Cl)ccc2Oc2ccc(Cl)cc21 |
| 174 °C | CCCC(=O)Nc1ccc(O)c(C(=O)C=CN(C)C)c1 |
| 98 to 99 °C | O=C(O)C1=C(C(=O)Nc2ccc(Br)cc2F)CCCC1 |
| 139 to 143 °C | NC(=O)CC1CCC(OCc2ccccc2)c2sccc21 (stereo not drawn) |
| 215 to 216 °C | O=C(O)c1cc2c(=O)n(C3CCCC3)c3ccccc3n2c1 |
| 79 to 79.5 °C | CCCCC(=O)c1ccc(-c2ccccc2)cc1 |
| 149 to 154 °C | O=C(O)c1ccccc1OCc1cccc(OCc2ccc3ccccc3n2)c1 |
| 62 °C | C=CCOc1cc(OCc2ccccc2)ccc1O |
| 92 to 94 °C | O=C(c1ccccc1)c1ccc(OCCO)cc1O |
| 147 to 148 °C | CC(C)(C)S(=O)(=O)CC(Cc1ccccc1)C(=O)O (stereo not drawn) |
| 69 to 71 °C | Cc1ccc([N+](=O)[O-])cc1-c1ccccc1 |
| 254 to 256 °C | O=C(c1ccccc1Cl)N1Cc2c(-c3noc(C4CC4)n3)ncn2-c2ccccc21 |
| 172 to 173 °C | CC(Cc1cccc([N+](=O)[O-])c1)(NC(=O)CN1C(=O)c2ccccc2C1=O)c1ccccc1 (stereo not drawn) |
| 180 to 184 °C | COc1cc2cc(C(=O)Nc3cc(OCc4ccccc4)c4ccccc4c3CCCl)[nH]c2c(OC)c1OC |
